Measurements reported in patent US11844772B2, “Method for treating rhabdoid tumors” (Lantern Pharma Inc., priority 2020, dated 2023).
pIC50: −log10 of the molar value.

Experiments:
[1] = tested on: CHLA-02 (group 1) ATRT cell line; experiment: LP-184 sensitivity in ATRT cell line CHLA-02; format: cell-based
Description: (§1) Patients receive several types of treatment, which may include surgery, chemotherapy and radiation, but the overall 2-year survival rate remains less than 15% for children aged younger than 3 years at diagnosis. ATRTs commonly have mutations in or loss of the gene SMARCB1. Increased LP-184 sensitivity correlates with decreased expression of SMARCB1. The panel of 3 ATRT cell lines, 2 of the 3 lines show evidence of high sensitivity to HydroxyUreaMethyl Acylfulvene (having a negative optical activity) or LP-184 with IC50s for those 2 being lower than 200 nM.

CHLA06 xenograft tumors = experiment: in vivo xenograft tumor study, animal model of atypical teratoid rhabdoid tumor (ATRT); set-up: species or system NOD SCID mice
Description: LP-184 or HydroxyUreaMethyl Acylfulvene with a negative optical activity was tested for anti-tumor efficacy in an in vivo xenograft tumor study by Lantern Pharma. […] LP-184 was administered after (treatment model) the onset of disease. CHLA06 cells were implanted subcutaneously in non-obese diabetic severe combined immunodeficiency (NOD SCID) mice, formed xenograft tumors, and were thereafter treated either with vehicle control of 95% saline/5% ethanol (N=10) or 2 mg/kg or 4 mg/kg LP-184 (N=10) administered as intravenous injections.
LP-184 was delivered as 5 every other day doses over 2 cycles with a break of 5 days between cycles (IV/QaD×5on/5off×2), i.e., dosing occurred on days 0, 2, 4, 6. 8, 14, 16, 18, 20, and 22 of the study. LP-184 treatment was started 4 weeks after implantation when the tumors reached a group average volume of 150 mm^3. […] 2 out of 10 mice in the 4 mg/kg LP-184 treatment group were virtually tumor-free at study termination (tumor volume 0.5 mm^3). […] The results are highlighted in FIG. 2, wherein the Y axis denotes tumor volume in mm^3 and X axis denotes days post, treatment initiation. Since tumor growth was established before administration of the anti-cancer study drug, the defining feature of the treatment tumor model, anti-tumor treatment effects may thus be appropriately attributed to LP-184.
In CHLA06 xenograft models, tumors from the vehicle control treated mice appear vividly large (length range 1.5-2 cm) whereas tumors from 4 mg/kg LP-184 treated animals shrunk remarkably (length less than 0.5 cm) or have fully regressed.

[2] = tested on: CHLA-06 (group 2A/B) ATRT cell line; experiment: LP-184 sensitivity in ATRT cell line CHLA-06; format: cell-based
Description: as §1

[3] = tested on: CHLA-05 (group 1) ATRT cell line; experiment: LP-184 sensitivity in ATRT cell line CHLA-05; format: cell-based
Description: as §1

[4] = tested on: panel of 3 ATRT cell lines; experiment: LP-184 sensitivity in a panel of 3 ATRT cell lines; format: cell-based; settings: 2 of the 3 ATRT cell lines (high sensitivity)
Description: as §1

With `CC1=C(CN(O)C(N)=O)C2=C(C)C3(CC3)[C@@](C)(O)C(=O)C2=C1` [LP-184, HydroxyUreaMethyl Acylfulvene] the pIC50 [1] was 5.75, the “mice virtually tumor-free at study termination” value (CHLA06 xenograft tumors; 4 mg/kg IV group, N=10) was 2 out of 10 and the “tumor volume of virtually tumor-free mice” value (CHLA06 xenograft tumors; 4 mg/kg IV group, study termination) was 0.5 mm^3. The “tumor length (photographs at end of experiment)” value (CHLA06 xenograft tumors; 4 mg/kg LP-184 treated animals, vehicle 1.5-2 cm) was “less than 0.5 cm”, the “tumor regression, on average” value (CHLA06 xenograft tumors; LP-184 treated groups (2 or 4 mg/kg IV), end of study day 42) was “near complete tumor regression” and the “tumor regrowth after final dose” value (CHLA06 xenograft tumors; day 40, final dose on day 22) was “no tumor regrowth”. It also gave a Tumor growth inhibition (CHLA06 xenograft tumors; relative to control, IV QoDx5 on/5 off x2, 2 mg/kg or 4 mg/kg) of 112%, a pIC50 [2] of 7.43 and a pIC50 [3] of 6.79. It also gave a pIC50 [4] of over 6.70.
